Reference: patent publication US20030215523A1, “Medicinal compositions for concomitant use as anticancer agent” (priority 2000, published 2003)
Counter-ions that a name gives are not always drawn. Like-named read-outs stand apart in the source and are kept apart here.

Key:
[1] = test system: Human colon cancer strain Colo320D.M.; test: Combined use of E7070 and 5-FU in human colon cancer Colo320D.M. xenograft model; details: for Toxicity Dead/Treated: Colo320D.M. xenograft, nude mice, E7070 30 mg/kg/day QDx5, 5-FU 60 mg/kg/day Q4Dx3
Description: (§1) J Natl Cancer Inst. Jun. 5, 1996;88(11):747-53; (iii) Effects of growth hormone and testosterone on cortical bone formation and bone density in aged orchiectomized rats. Bone. 1999 May;24(5):491-7).

[2] = test system: Human non-small cell lung cancer LU-99; details: for Tx4 (days) mean ± S.D.: time in days for tumor size to attain 4 folds of initial tumor size: LU-99 s.c. in nude mice, E7070 25 mg/kg/day i.v. QDx5, CDDP 7.5 mg/kg/day i.v. single dose, + simultaneous (E7070 day 1-5, CDDP day 1), E7070 → CDDP (day 6), CDDP (day 1) → E7070 (day 2-6)
Description: as §1

[3] = test system: Human colon cancer strain HCT15; details: for Tx4 (days) mean ± S.D.: time in days for tumor size to attain 4 folds of initial tumor size: HCT15 s.c. in nude mice, E7070 30 mg/kg/day i.v. QDx5 (day 1-5), CPT-11 75 mg/kg/day i.v. Q4Dx3 (day 1, 5, 9); for Toxicity Dead/Treated: HCT15 xenograft, nude mice, E7070 30 mg/kg/day QDx5, CPT-11 75 mg/kg/day Q4Dx3
Description: as §1

[4] = test system: Human colon cancer strain SW620; test: Combined use of E7070 and CPT-11 in human colon cancer SW620 xenograft model; details: for Tx4 (days) mean ± S.D.: time in days for tumor size to attain 4 folds of initial tumor size: SW620 s.c. in nude mice, E7070 25 mg/kg/day i.v. QDx5, CPT-11 62.5 mg/kg/day i.v. Q4Dx3, + simultaneous (E7070 day 1-5, CPT-11 day 1, 5, 9), E7070 → CPT-11 (day 6, 10, 14), CPT-11 → E7070 (day 10-14); for Toxicity mRBW (minimum relative body weight) mean: parentheses: day when RBW was minimal
Description: as §1
E7070 alone was intravenously administered once per day for5 days (first to fifth days), while CPT-11 alone was intravenously administered 3 times (once every 4 days, that is, on the first, fifth and ninth days).

[5] = test system: Human colon cancer strain HCT15; test: Combined use of E7070 and MMC in human colon cancer HCT15 xenograft model; details: for Tx4 (days) mean ± S.D.: time in days for tumor size to attain 4 folds of initial tumor size: HCT15 s.c. in nude mice, E7070 25 mg/kg/day i.v. QDx5 (day 1-5; combination row prints 30 mg/kg/day), MMC 4.19 mg/kg/day i.v. single dose (day 1); for Toxicity Dead/Treated: HCT15 xenograft, nude mice, E7070 QDx5, MMC 4.19 mg/kg/day QDx1
Description: as §1

[6] = test system: Human breast cancer HBC4; test: Combined use of E7070 and capecitabine in human breast cancer HBC4 xenograft model; assay type: in vivo
Description: as §1

[7] = Further anticancer agents examined for synergistic effect in combined use with E7070; details: used in the compositions of the invention (with E7070); model and data not given
[8] = SW620 xenograft, nude mice, E7070 25 mg/kg/day QDx5, CPT-11 62.5 mg/kg/day Q4Dx3
[9] = LU-99 xenograft, nude mice, E7070 25 mg/kg/day QDx5, CDDP 7.5 mg/kg/day QDx1
[10] = HBC4 xenograft, nude mice, E7070 30.625 mg/kg/day, capecitabine 1.3125 mmol/kg/day

In the case of `O=c1[nH]cc(F)c(=O)[nH]1` [5-FU, 5-fluoro-2,4-(1H,3H)-pyrimidinedione, reference compound], the “Toxicity Dead/Treated” value [1] is reported as 0/6.

In the case of `N.N.[Cl][Pt][Cl]` [CDDP, cis-diamminedichloroplatinum, reference compound], the “Tx4 (days) mean ± S.D.: time in days for tumor size to attain 4 folds of initial tumor size” value (shortened to “Tx4 … to attain 4 folds of initial tumor size”) [2] is reported as 10.7 ± 0.5 days.

With `CCc1c2c(nc3ccc(OC(=O)N4CCC(N5CCCCC5)CC4)cc13)-c1cc3c(c(=O)n1C2)COC(=O)[C@]3(O)CC` [CPT-11, [1,4′-Bipiperidine]-1′-carboxylic acid (S)-4,11-diethyl-3,4,12,14-tetrahydro-4-hydroxy-3,14-dioxo-1H-pyrano-[3′,4′:6,7]-indolizino[1,2-b]quinolin-9-yl ester Hydrochloride trihydrate, reference compound] the “Tx4 … to attain 4 folds of initial tumor size” value [3] was 17.8 ± 1.0 days, the “Toxicity Dead/Treated” value [3] was 0/6 and the “Tx4 … to attain 4 folds of initial tumor size” value [4] was 48.7 ± 29.7 days. The “Toxicity Dead/Treated” value [4, 8] was 0/6 and the “Toxicity mRBW (minimum relative body weight) mean” value [4, 8] was 0.99(8).

In the case of `NS(=O)(=O)c1ccc(S(=O)(=O)Nc2cccc3c(Cl)c[nH]c23)cc1` [E7070, N-(3-chloro-1H-indol-7-yl)-4-sulfamoylbenzenesulfonamide], the “Tx4 … to attain 4 folds of initial tumor size” value [5] is reported as 12.7 ± 2.2 days, the “Toxicity Dead/Treated” value [5] is reported as 0/6 and the “Tx4 … to attain 4 folds of initial tumor size” value ([1]; Colo320D.M. s.c. in nude mice, E7070 30 mg/kg/day i.v. QDx5, 5-FU 60 mg/kg/day i.v. Q4Dx3, + simultaneous (E7070 day 1-5, 5-FU day 1, 5, 9), E7070 → 5-FU (day 6, 10, 14), 5-FU → E7070 (day 10-14)) is reported as 11.2 ± 1.9 days. For the same compound, the “Toxicity Dead/Treated” value [1] was 0/6, the “Tx4 … to attain 4 folds of initial tumor size” value [2] was 18.2 ± 2.3 days and the “Toxicity Dead/Treated” value [2, 9] was 0/6. The “mRTV (minimum relative tumor volume) mean ± S.D.” value [2, 9] was 0.75 ± 0.16, the “Tx4 … to attain 4 folds of initial tumor size” value [3] was 18.7 ± 2.0 days and the “Toxicity Dead/Treated” value [3] was 0/6. The “Tx4 (days): time in days for tumor size to attain 4 folds of initial size” value ([6]; HBC4 s.c. in nude mice, E7070 30.625 mg/kg/day (87.5% MTD) once per day for 5 days, capecitabine 1.3125 mmol/kg/day (87.5% MTD) once per day for 14 days, combination: E7070 day 1-5, capecitabine day 6-19) was 50.0 ± 8.1 days, the “CR, complete response: incidence of tumor free mice” value [6, 10] was 0/6 and the “PR, partial response: incidence of tumor regression (more than 50% of tumor regression)” value [6, 10] was 6/6. For the same compound, the “mRTV (minimum relative tumor volume)” value [6, 10] was 0.24 ± 0.07, the “T · C” value ([6]; HBC4 xenograft, Tx4 of treated versus control, E7070 30.625 mg/kg/day, capecitabine 1.3125 mmol/kg/day) was 28.0 days and the “Tx4 … to attain 4 folds of initial tumor size” value [4] was 30.2 ± 6.1 days. The “Toxicity Dead/Treated” value [4, 8] was 0/6, the “Toxicity mRBW (minimum relative body weight) mean” value [4, 8] was 0.98(8) and the “mRTV (minimum relative tumor volume) mean ± S.D.” value ([4]; SW620 xenograft, nude mice, E7070 25 mg/kg/day QDx5, CPT-11 62.5 mg/kg/day Q4Dx3, parentheses: day when RTV was minimal) was 0.76 ± 0.42(12).

With `CO[C@@]12[C@H](COC(N)=O)C3=C(C(=O)C(C)=C(N)C3=O)N1C[C@@H]1N[C@@H]12` [MMC, [1aS-(1aα,8β,8aα,8bα)]-6-amino-8-[[(aminocarbonyl)oxy]methyl]1,1a,2,8,8a,8b-hexahydro-8a-methoxy-5-methylazirino[2′,3′:3,4]pyrrolo[1,2-a]indole-4,7-dione, reference compound] the “Tx4 … to attain 4 folds of initial tumor size” value [5] was 16.2 ± 3.4 days and the “Toxicity Dead/Treated” value [5] was 0/6.

In the case of `COc1cccc2c1C(=O)c1c(O)c3c(c(O)c1C2=O)C[C@@](O)(C(=O)CO)C[C@@H]3O[C@H]1C[C@H](N)[C@H](O)[C@H](C)O1` [doxorubicin, 10-[(3-amino-2,3,6-trideoxy-α-L-1yxo-hexopyranosyl)oxy]-7,8,9,10-tetrahydro-6,8,11-trihydroxy-8-(hydroxyacetyl)-1-methoxy-(8S-cis)-5,12-naphthacenedione], the “Antitumor activity when examined for synergistic effect (in words)” value [7] is reported as “excellent antitumor activity”.

In the case of `Nc1ccn([C@@H]2O[C@H](CO)[C@@H](O)C2(F)F)c(=O)n1` [gemcitabine hydrochloride, 2′-deoxy-2′,2′-difluoro-cytidine hydrochloride], the “Antitumor activity when examined for synergistic effect (in words)” value [7] is reported as “excellent antitumor activity”.
